Test results taken from ChEMBL document CHEMBL4706653, “Ultra-short lipopeptides against gram-positive bacteria while alleviating antimicrobial resistance” (Eur J Med Chem, 2021).
Residues, ends and D or L forms follow the SMILES beside them. *: point of attachment. Myristoyl = CCCCCCCCCCCCCC(=O)*; Lauroyl = CCCCCCCCCCCC(=O)*

What was measured:
[1] = test system: Cell membrane; assay: Induction of cytoplasmic membrane disruption in Staphylococcus aureus ATCC 25923 measured for 15 mins by DiSC3-5 dye based fluorescence assay
[2] = test system: Staphylococcus aureus; assay: Ratio of MIC for antimicrobial activity against Staphylococcus aureus ATCC 25923 in presence of 2.5% serum to MIC for antimicrobial activity against Staphylococcus aureus ATCC 25923 in absence of serum; assay type: functional
[3] = Stability in mouse serum assessed as drug degradation at volume ratio of 1:19 measured after 6 hrs by RP-HPLC analysis; assay type: ADME, cell-free; settings: read-out: Drug degradation

Row | Compound | Activity [1] | Ratio [2] | metabolised at 6 h [3]
1 | CCCCCCCCCCCC(=O)N[C@@H](CCCNC(=N)N)C(=O)N[C@@H](CCCNC(=N)N)C(=O)N[C@@H](Cc1c[nH]c2ccccc12)C(N)=O (Lauroyl-Arg-Arg-Trp-NH2) | Dose-dependent effect | 8 | 
2 | CCCCCCCCCCCCCC(=O)N[C@@H](CCCNC(=N)N)C(=O)N[C@@H](Cc1c[nH]c2ccccc12)C(=O)N[C@@H](Cc1c[nH]c2ccccc12)C(N)=O (Myristoyl-Arg-Trp-Trp-NH2) |  |  | 70%
